Data as given in patent publication US9226929B2, “Pharmaceutically active disubstituted triazine derivatives” (Bayer Intellectual Property GMBH, priority 2011, dated 2016).

Assays:
CDK7/CyclinH/MAT1 = molecular target: T1, CDK7/CyclinH/MAT1 (Homo sapiens, UniProt P50613); assay: LanthaScreen Eu Kinase Binding Assay, CDK7; conditions: tracer 236, read-out: CDK7 (activity range), Kd
T1 construct: His; purchased Carna Biosciences
Summary of the method: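 TR-FRET displacement of an Alexa Fluor 647 active-site tracer, detected with a Eu anti-GST antibody, over an 8-point 1:3 compound series. Tracer was set at its Kd (30 nM for CDK2/Cyclin A, CDK7 and CDK9/Cyclin T1; 35 nM for CDK9/Cyclin K). Read after 1 h at room temperature; Kd was fitted from sigmoidal curves.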

CDK9 = molecular target: T2, CDK9 (Homo sapiens, UniProt P50750); assay: Lance Ultra KinaSelect Assay, CDK9; format: biochemical; conditions: cyclin partner (T1 or K) not stated; read-out: CDK9 LANCE assay (activity range), IC50
T2 construct: purchased Invitrogen
T2 sequence (P50750 whole entry): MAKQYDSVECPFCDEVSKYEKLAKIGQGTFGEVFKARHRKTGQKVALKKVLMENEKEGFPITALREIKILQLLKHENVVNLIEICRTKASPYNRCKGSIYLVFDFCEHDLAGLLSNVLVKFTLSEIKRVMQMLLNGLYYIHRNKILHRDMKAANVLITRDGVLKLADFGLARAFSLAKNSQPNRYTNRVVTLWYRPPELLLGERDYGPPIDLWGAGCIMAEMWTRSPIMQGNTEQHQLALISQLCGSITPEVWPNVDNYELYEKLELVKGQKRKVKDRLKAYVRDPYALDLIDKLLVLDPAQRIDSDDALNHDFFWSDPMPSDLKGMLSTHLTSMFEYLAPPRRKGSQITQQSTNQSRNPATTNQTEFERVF
Method: (§1) 2. Measurement of half maximal inhibitory concentration to CDKs This protocol describes how the Lance Ultra KinaSelect Assay was performed to determine half maximal inhibitory concentration (1050) of compounds of general formula (I) and CDK/Cyclin complexes. The principle behind this enzymatic assay is based upon the phosphorylation of the ULight-Peptide Substrat. It is detected by using a specific
(§2) EU-labeled anti-phospho peptide antibody. The binding of the Eu-labeled anti-phospho peptide antibody to the phosphorylated ULight labeled peptide gives rise to a FRET-signal. Binding of an inhibitor to the kinase prevents phosphorylation of the ULight-MBP Substrat, resulting in a loss of FRET.
(§3) The compounds of general formula (I) summarized in Table 5 were diluted from a 10 mM DMSO stock solution 1:10 in a total volume of 15 μL DMSO. This compound predilution was then serial diluted 1:3 over 8 steps in DMSO and briefly spun down. Each compound solution was now diluted 1:20 in Enzymatic Buffer (HEPES: 50 mM, pH: 7.5; MgCl2: 10 mM; EGTA: 1 mM; DTT: 2 mM; Tween-20: 0.01%), mixed thoroughly and spun down. For every sample, 2 μL of the diluted compound were mixed with 6 μL CDK/Cyclin/Substrat solution and 2 μL ATP solution in a well of a small volume 384 well plate (Corning Incorporated, Corning, N.Y., USA; order no. 3673). The CDK/Cyclin was diluted to the appropriate concentration (see Table 3) and the ATP concentration was adjusted to its […] for the CDK/Cyclin, which was 3 μM for CDK2/Cyclin A, 20 μM for CDK1/Cyclin B1, 25 μM for CDK7/Cyclin H and CDK9/Cyclin T1, 55 μM for CDK6/Cyclin D3, 90 μM for CDK4/Cyclin D1 and 125 μM for CDK9/Cyclin K. For negative controls, in each well 2 μL of DMSO solution (1% final DMSO assay concentration) was mixed with 6 μL substrate solution (50 nM ULight MBP final assay concentration) and 2 μL ATP solution (appropriate final concentration see Table 3). For positive controls, in each well 2 μL of DMSO solution (1% final DMSO assay concentration) was mixed with 6 μL CDK/Cyclin/Substrat (appropriate final concentration see Table 3) and 2 μL Tracer ATP solution (appropriate final concentration see Table 3). Positive and negative controls were calculated from at least 8 different sample wells. The 384 well plates were mixed in a Teleshaker plate mixer (Beckman Coulter, Brea, Calif., USA) at 2000 rpm for 40 sec, and incubated for 1 h at room temperature. Before reading, 10 μL the detection buffer (Lance Detection Buffer 1×; EDTA: […]; Eu-Anti-P-MBP: see Table 3) was added. The FRET signal was measured at 340 nm excitation, 665 nm and 615 nm emission (for the kinase tracer and LanthaScreen Eu-AB, respectively) with an Envision spectrophotometer (Perkin Elmer, Waltham, Mass., USA) with 50 μs delay and 300 μs integration time. IC50 values were determined from the sigmoidal dose response curves with the software Quattro Workflow (Quattro GmbH, Munich, Germany).

CDK4/CyclinD1 = molecular target: T3, CDK4/CyclinD1 (Homo sapiens, UniProt P11802); assay: Lance Ultra KinaSelect Assay, CDK4; format: biochemical; conditions: ATP 90 μM; read-out: CDK4 LANCE assay (activity range), IC50
T3 construct: purchased Invitrogen
T3 sequence (P11802 whole entry): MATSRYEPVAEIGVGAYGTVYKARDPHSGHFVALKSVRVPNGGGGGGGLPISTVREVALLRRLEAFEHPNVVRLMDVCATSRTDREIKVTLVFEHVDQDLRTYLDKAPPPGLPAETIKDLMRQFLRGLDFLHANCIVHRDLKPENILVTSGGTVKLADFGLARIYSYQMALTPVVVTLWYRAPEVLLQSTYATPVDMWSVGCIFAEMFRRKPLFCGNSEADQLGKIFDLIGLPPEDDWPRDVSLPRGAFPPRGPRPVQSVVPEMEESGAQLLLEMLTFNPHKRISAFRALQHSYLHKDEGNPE
T3 sequence (P24385 whole entry partner): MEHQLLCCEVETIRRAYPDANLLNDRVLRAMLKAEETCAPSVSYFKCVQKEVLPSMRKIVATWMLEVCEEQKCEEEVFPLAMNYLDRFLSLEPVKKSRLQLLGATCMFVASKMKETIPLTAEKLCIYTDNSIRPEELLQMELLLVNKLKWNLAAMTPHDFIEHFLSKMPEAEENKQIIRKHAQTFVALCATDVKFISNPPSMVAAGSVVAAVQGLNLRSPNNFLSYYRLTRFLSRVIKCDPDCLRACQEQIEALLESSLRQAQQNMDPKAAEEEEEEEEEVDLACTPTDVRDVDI
Method: as §1, §2, §3

CDK6/CyclinD3 = molecular target: T4, CDK6/CyclinD3 (Homo sapiens, UniProt Q00534); assay: Lance Ultra KinaSelect Assay, CDK6; format: biochemical; conditions: ATP 55 μM; read-out: CDK6 LANCE assay (activity range), IC50
T4 construct: purchased Carna
T4 sequence (Q00534 whole entry): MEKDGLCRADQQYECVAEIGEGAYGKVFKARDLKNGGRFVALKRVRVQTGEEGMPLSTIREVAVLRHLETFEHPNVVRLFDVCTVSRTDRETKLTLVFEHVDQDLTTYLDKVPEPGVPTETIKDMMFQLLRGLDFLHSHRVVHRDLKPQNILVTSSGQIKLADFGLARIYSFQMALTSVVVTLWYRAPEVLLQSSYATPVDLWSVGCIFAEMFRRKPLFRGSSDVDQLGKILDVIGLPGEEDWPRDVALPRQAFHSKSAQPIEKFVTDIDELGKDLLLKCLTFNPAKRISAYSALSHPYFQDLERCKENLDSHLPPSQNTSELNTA
T4 sequence (P30281 whole entry partner): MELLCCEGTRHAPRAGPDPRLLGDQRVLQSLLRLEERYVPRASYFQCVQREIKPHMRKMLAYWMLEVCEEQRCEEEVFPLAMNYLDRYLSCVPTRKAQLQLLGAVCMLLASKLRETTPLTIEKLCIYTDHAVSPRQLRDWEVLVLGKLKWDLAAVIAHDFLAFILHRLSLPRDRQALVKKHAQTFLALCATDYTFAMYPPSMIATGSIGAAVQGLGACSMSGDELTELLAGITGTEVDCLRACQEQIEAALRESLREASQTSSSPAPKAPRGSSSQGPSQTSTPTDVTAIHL
Method: as §1, §2, §3

CDK1/CyclinB1 = molecular target: T5, CDK1/CyclinB1 (Homo sapiens, UniProt P06493); assay: Lance Ultra KinaSelect Assay, CDK1; format: biochemical; conditions: ATP 20 μM; read-out: CDK1 LANCE assay (activity range), IC50
T5 construct: purchased Carna
T5 sequence (P06493 whole entry): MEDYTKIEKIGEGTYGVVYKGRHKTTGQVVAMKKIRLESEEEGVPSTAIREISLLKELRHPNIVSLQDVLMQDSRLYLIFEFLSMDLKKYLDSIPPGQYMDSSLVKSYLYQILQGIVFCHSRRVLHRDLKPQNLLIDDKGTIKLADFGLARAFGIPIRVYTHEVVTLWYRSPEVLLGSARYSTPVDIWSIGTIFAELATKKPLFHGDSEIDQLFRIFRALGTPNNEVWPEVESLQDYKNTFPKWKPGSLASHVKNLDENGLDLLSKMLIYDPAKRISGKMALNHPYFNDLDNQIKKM
T5 sequence (P14635 whole entry partner): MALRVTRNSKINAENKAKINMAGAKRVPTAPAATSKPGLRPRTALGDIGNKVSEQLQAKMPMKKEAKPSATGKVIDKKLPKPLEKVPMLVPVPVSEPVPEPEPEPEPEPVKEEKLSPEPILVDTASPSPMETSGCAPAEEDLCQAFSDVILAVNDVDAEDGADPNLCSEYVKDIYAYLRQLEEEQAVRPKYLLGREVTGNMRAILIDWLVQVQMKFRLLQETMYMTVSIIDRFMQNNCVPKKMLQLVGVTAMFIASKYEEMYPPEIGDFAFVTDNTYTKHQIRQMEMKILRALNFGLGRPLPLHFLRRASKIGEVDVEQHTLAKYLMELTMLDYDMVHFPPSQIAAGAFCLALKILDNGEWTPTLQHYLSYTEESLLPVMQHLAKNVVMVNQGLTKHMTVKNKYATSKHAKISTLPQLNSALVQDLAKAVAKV
Method: as §1, §2, §3

T1 sequence (P50613 whole entry): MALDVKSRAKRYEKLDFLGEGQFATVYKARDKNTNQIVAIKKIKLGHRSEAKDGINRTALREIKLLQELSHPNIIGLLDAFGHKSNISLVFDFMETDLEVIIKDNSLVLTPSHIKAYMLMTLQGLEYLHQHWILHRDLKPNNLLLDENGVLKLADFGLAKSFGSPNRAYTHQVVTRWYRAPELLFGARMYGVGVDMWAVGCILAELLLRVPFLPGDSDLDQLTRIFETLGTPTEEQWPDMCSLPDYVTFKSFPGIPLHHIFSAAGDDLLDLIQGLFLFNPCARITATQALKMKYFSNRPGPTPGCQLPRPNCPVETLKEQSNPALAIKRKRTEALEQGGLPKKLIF
T1 sequence (P51946 whole entry partner): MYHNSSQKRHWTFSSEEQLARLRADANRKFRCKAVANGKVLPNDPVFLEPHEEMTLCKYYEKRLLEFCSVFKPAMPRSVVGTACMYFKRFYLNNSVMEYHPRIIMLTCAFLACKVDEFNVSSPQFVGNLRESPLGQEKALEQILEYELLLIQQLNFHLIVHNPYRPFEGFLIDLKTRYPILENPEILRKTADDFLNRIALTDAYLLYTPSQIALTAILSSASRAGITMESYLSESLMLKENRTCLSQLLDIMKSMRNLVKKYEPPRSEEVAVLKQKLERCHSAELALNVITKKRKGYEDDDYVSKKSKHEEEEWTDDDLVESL
T1 sequence (P51948 whole entry partner): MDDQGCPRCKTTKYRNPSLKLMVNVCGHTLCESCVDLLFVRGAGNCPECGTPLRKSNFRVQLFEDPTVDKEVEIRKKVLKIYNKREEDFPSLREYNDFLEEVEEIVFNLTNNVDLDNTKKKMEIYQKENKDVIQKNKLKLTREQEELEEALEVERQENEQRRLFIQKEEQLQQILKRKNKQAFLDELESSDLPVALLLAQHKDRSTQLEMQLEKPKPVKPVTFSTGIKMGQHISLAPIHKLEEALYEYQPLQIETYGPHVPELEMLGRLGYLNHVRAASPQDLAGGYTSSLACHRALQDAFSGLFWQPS

| Kd (CDK7/CyclinH/MAT1) [nM] | IC50 (CDK9) [nM] | IC50 (CDK4/CyclinD1) [nM] | IC50 (CDK6/CyclinD3) [nM] | IC50 (CDK1/CyclinB1) [nM] | SMILES |
| --- | --- | --- | --- | --- | --- |
| 1000 to 10000 | < 100 | > 10000 | > 10000 | 1000 to 10000 | NS(=O)(=O)Cc1cccc(Nc2ncnc(N3Cc4cn[nH]c4C3)n2)c1 [Compound B51, 3-[(4-(Pyrrolo[3,4-c]pyrazol-5(1H,4H,6H)-yl)-1,3,5-triazin-2-yl)amino]-benzenemethanesulfonamide] |
| > 10000 | 100 to 1000 | > 10000 | > 10000 | 1000 to 10000 | NS(=O)(=O)Cc1cccc(Nc2ncnc(N3CCCC3c3ccccc3)n2)c1 (racemic) [Compound B33, rac-3-[(4-(2-Phenylpyrrolidin-1-yl)-1,3,5-triazin-2-yl)amino]-benzenemethanesulfonamide] |
| 1000 to 10000 | < 100 | > 10000 | > 10000 | 100 to 1000 | NS(=O)(=O)Cc1cccc(Nc2ncnc(N3CCc4ncccc4C3)n2)c1 [Compound B38, 3-[(4-(7,8-Dihydro-1,6-naphthyridin-6(5H)-yl)-1,3,5-triazin-2-yl)amino]-benzenemethanesulfonamide] |
| 100 to 1000 | < 100 | 1000 to 10000 | 1000 to 10000 | 100 to 1000 | NS(=O)(=O)Cc1cccc(Nc2ncnc(N3CCCn4nccc43)n2)c1 [Compound B47, 3-[(4-(6,7-Dihydropyrazolo[1,5-a]pyrimidin-4(5H)-yl)-1,3,5-triazin-2-yl)amino]benzenemethanesulfonamide] |

The remaining lines, values behind:

| SMILES | Kd (CDK7/CyclinH/MAT1) [nM] | IC50 (CDK9) [nM] | IC50 (CDK4/CyclinD1) [nM] | IC50 (CDK6/CyclinD3) [nM] | IC50 (CDK1/CyclinB1) [nM] |
| --- | --- | --- | --- | --- | --- |
| NS(=O)(=O)Cc1cccc(Nc2ncnc(N3CCc4ncsc4C3)n2)c1 [Compound B45, 3-[(4-(6,7-Dihydrothiazolo[5,4-c]pyridin-5(4H)-yl)-1,3,5-triazin-2-yl)amino]benzenemethanesulfonamide] | 1000 to 10000 | < 100 | – | – | – |
| NS(=O)(=O)Cc1cccc(Nc2ncnc(N3CCc4nc[nH]c4C3)n2)c1 [Compound B44, 3-[(4-(6,7-Dihydro-3H-imidazo[4,5-c]pyridin-5(4H)-yl)-1,3,5-triazin-2-yl)amino]benzenemethanesulfonamide] | 1000 to 10000 | < 100 | – | – | – |
| NS(=O)(=O)Cc1cccc(Nc2ncnc(N3CCCCC3)n2)c1 [Compound B1, 3-[(4-(Piperidin-1-yl)-1,3,5-triazin-2-yl)amino]benzenemethane sulfonamide] | > 10000 | 1000 to 10000 | > 10000 | > 10000 | > 10000 |
| COC[C@H]1CCCN1c1ncnc(Nc2cccc(CS(N)(=O)=O)c2)n1 [Compound B17, (R)-3-[(4-(2-(Methoxymethyl)pyrrolidin-1-yl)-1,3,5-triazin-2-yl)amino]benzenemethanesulfonamide] | > 10000 | 100 to 1000 | > 10000 | > 10000 | 1000 to 10000 |
| COC(=O)[C@H]1CCCN1c1ncnc(Nc2cccc(CS(N)(=O)=O)c2)n1 [Compound B21, (R)-Methyl 1-[4-((3-(Sulfamoylmethyl)phenyl)amino)-1,3,5-triazin-2-yl]pyrrolidine-2-carboxylate] | > 10000 | 100 to 1000 | – | – | – |
